Source: article PMC10396955, “2-Oxabicyclo[2.1.1]hexanes as saturated bioisosteres of the ortho-substituted phenyl ring” (Nature Chemistry, 2023)
≈ marks a conversion by molar mass, not a printed value. Read-outs that look alike come from different tables or passages of the source.

Assays:
[1] = Metabolic stability in human liver microsomes; type: in vitro ADME; settings: both sexes; for half-life at 2 µM: read-out: t1/2; for k el at 2 µM: elimination constant, read-out: kel (converted)
Description: (§1) The data acquisition and system control was performed using Analyst 1.6.3 software from AB Sciex. Methods Microsomal incubations were carried out in 96-well plates in 5 aliquots of 30 μL each (one for each time point). […] In the control reactions the NADPH-cofactor system was substituted with phosphate buffer. […] Each reaction was performed in duplicates. Five time points over 40 minutes were analyzed. The reactions were stopped by adding 4 volumes of methanol containing internal standard to incubation aliquots, followed by protein sedimentation by centrifuging at 5500 rpm for 4 minutes. […]. Supernatants were analyzed using the HPLC system coupled with tandem mass spectrometer. […] In some cases, the last time point is excluded from the calculations to ensure acceptable logarithmic linearity of decay.

human liver microsomes = experiment: Metabolic stability in human liver microsomes; type: in vitro ADME
Description: as §1

[2] = Kinetic solubility in phosphate-buffered saline, pH 7.4; type: physicochemical; settings: phosphate-buffered saline, 25 °C, pH 7.4, aqueous buffer, kinetic from dmso stock
Description: Analysis of Aqueous Solubility […]
compound (Ondansetron) were assessed for kinetic solubility in phosphate-buffered saline, pH […]
Phosphate buffered saline, pH 7.4 (Sigma-Aldrich, USA; Cat #P3813) […]
MultiScreen HTS 96 Well Filter Plates (Millipore, Ireland; Cat # MSGVS2210) […]
Matrix Multichannel Electronic Pipette 2-125 µL, 5-250 µL, 15-1250 µL (Thermo Scientific, […]
Vacuum pump (Millipore, USA; Model # XX5500000)
The measurements were performed using SpectraMax Plus reader in UV-Vis mode. Acquisition and analysis of the data were performed using SoftMax Pro v.5.4 (Molecular Devices) and Excel […]
Kinetic solubility assay was performed according to the Enamine’s aqueous solubility SOP.
Briefly, using a 20 mM stock solution of the compound in 100% DMSO dilutions were prepared to a theoretical concentration of 400 μM in duplicates in phosphate-buffered saline pH 7.4 […]
for two hours and then filtered through HTS filter plates using a vacuum manifold. The filtrates of test compounds were diluted 2-fold with acetonitrile with 2% DMSO before measuring.
In parallel, compound dilutions in acetonitrile/PBS (1:1) were prepared to theoretical […]
DMSO to generate calibration curves. Ondansetron was used as reference compound to control proper assay performance. 200 μl of each sample was transferred to 96-well plate and measured in 200-550 nm range with 5 nm step.
The concentrations of compounds in PBS filtrate are calculated using a dedicated Microsoft Excel calculation script. Proper absorbance wavelengths for calculations are selected for each compound manually based on absorbance maximums (absolute absorbance unit values for the minimum and maximum concentration points within 0 – 3 OD range). Each of the final datasets is additionally visually evaluated by the operator and goodness of fit (R2) is calculated for each calibration curve. The effective range of this assay is approximately 2-400 μM and the […]

physchem = type: physicochemical; settings: for D (partition ratio), incubation 1 / D (partition ratio), incubation 2 / D (partition ratio), incubation 3: Table S2, n-octanol/PBS pH 7.4
Description: Determination of Distribution Coefficient (LogD, pH 7.4) […]
n-octanol – phosphate buffered saline (PBS), pH 7.4. Distribution coefficient (or LogD) is a […]
Phosphate buffered saline, tablet (Sigma-Aldrich, USA; Cat # P4417)
Acetic acid (Enamine, Ukraine.)
DMSO stock solutions of the test compounds 10mM
Gradient HPLC system (Shimadzu, Japan)
MTR22 Multi Mix Rotator (UNICO, USA)
Laboratory Centrifuge, Sigma 4-15C, Qiagen (SIGMA GmbH, Germany) […]
allowed to mix in a rotator for 1 h at 30 rpm. Phase separation was assured by centrifugation for […]
dilution. The samples (both phases) were analyzed using a HPLC system coupled with a tandem mass spectrometer. Mebendazole was used as a reference compound. […]
where: SO – peak area of the analyte in octanol phase
S P – peak area of the analyte in PBS buffer do – dilution coefficient for octanol phase dp – dilution coefficient for aqueous phase

[3] = Chemical stability of carboxylic acids (acid, base, storage); type: physicochemical; settings: room temperature, one day
Excerpt: We also checked the chemical stability of three representative carboxylic acids, 1b, 19b and 22b (Table 2), because we suspected that some of them could decompose via a retro-Michael-type reaction. […] All products were crystalline solids, and we stored all of them in closed vials at room temperature on the shelf.

[4] = human, liver microsomes, pH 7.4, human liver microsomes, 2 μM, 37 °C, with NADPH, 7 min
[5] = human, liver microsomes, pH 7.4, human liver microsomes, 2 μM, 37 °C, with NADPH, 15 min
[6] = human, liver microsomes, pH 7.4, human liver microsomes, 2 μM, 37 °C, with NADPH, read-out: % Remaining, Mean of 2
[7] = human, liver microsomes, pH 7.4, human liver microsomes, 0.42 mg protein per ml, Table S3, * approximate due to high stability, read-out: Clint
[8] = human, liver microsomes, pH 7.4, human liver microsomes, * approximate due to high stability
[9] = human, liver microsomes, pH 7.4, human liver microsomes, Fig. 3, read-out: CIint, intrinsic clearance
[10] = pH 7.4, human liver microsomes, no NADPH cofactor, ** instability partially or completely not determined by CYP450 activity, read-out: % Remaining without cofactor, Mean of 2
[11] = pH 7.4, human liver microsomes, * approximate due to high stability
[12] = Table S1, incubation 1, read-out: PBS solubility, pH 7.4, Incubation 1
[13] = Table S1, incubation 2, read-out: PBS solubility, pH 7.4, Incubation 2
[14] = experimental kinetic solubility in phosphate-buffered saline at pH 7.4, Fig. 3, read-out: Solubility
[15] = pH 7.4, LogD, pH 7.4, incubation 1
[16] = pH 7.4, LogD, pH 7.4, incubation 2
[17] = pH 7.4, LogD, pH 7.4, incubation 3
[18] = Table S1, mean of 2 incubations, 2 h, 2% DMSO, effective range approx. 2-400 μM, read-out: PBS solubility, pH 7.4, Mean

SMILES | remaining at […], 2 µM [1, 4] [%] | remaining at […], 2 µM [1, 5] [%] | remaining at 25 min, 2 µM [1, 6] [%] | remaining at 40 min, 2 µM [1, 6] [%] | microsomal CLint at 2 µM [1, 7] [µL/min/mg] | half-life at 2 µM [1, 8] [min] | remaining at 40 min, 2 µM [1, 10] [%] | k el at 2 µM [1, 11] [s⁻¹] | solubility at 2 h [2, 12] [µM] | solubility at 2 h [2, 13] [µM] | solubility at 2 h [2, 14] [µM] | D (partition ratio), incubation 1 (physchem) | D (partition ratio), incubation 2 (physchem) | D (partition ratio), incubation 3 (physchem) | logD at 1 h (physchem; pH 7.4, LogD, pH 7.4 (mean)) | logD at 1 h (physchem; [15]) | logD at 1 h (physchem; [16]) | logD at 1 h (physchem; [17]) | logD at 1 h (physchem; pH 7.4, logD (7.4)) | solubility at 2 h [2, 18] [µM] | other results
O=C(O)Cc1ccccc1Nc1c(Cl)cccc1Cl [Diclofenac, reference compound] |  |  |  |  |  |  |  |  |  |  |  |  |  |  |  |  |  |  |  |  | kel (human liver microsomes; both, human, 2 µM, pH 7.4): 0.115 min⁻¹; Clint (human liver microsomes; both, human, microsomes, 2 µM, pH 7.4): 276 µL/min/mg; % Remaining, Mean of 2 (human liver microsomes; both, human, microsomes, 25 min, 2 µM, pH 7.4): 8%
O=C(NC1CCN(CCCCC2(C(=O)NCC(F)(F)F)c3ccccc3-c3ccccc32)CC1)[C@@H]1[C@@H]2CC[C@@]1(c1ccc(C(F)(F)F)cc1)C2 (relative stereo) [Compound 34] | 76 | 41 | 21 | 8 | 157 | 10.6 | 91 | 0.00108 | 2 (≈ 1.4 µg/mL) | 2 (≈ 1.4 µg/mL) | 2 ± 0.2 (≈ 1.4 µg/mL) | 3.53E+08 | 3.40E+06 | 1.71E+05 | > 4.5 | > 4.5 | > 4.5 | > 4.5 | > 4.5 | 2 (≈ 1.4 µg/mL) | CIint, intrinsic clearance (human liver microsomes; human liver microsomes): 157 µL/min/mg
O=C(O)C1C2CC1(c1ccccc1)CO2 (centres unmarked) [Compound 1b] |  |  |  |  |  |  |  |  |  |  |  |  |  |  |  |  |  |  |  |  | chemical stability ([3]; aqueous 1 M hydrochloric acid): did not lead to any decomposition; chemical stability ([3]; aqueous 1 M sodium hydroxide): did not lead to any decomposition
O=C(NC1CCN(CCCCC2(C(=O)NCC(F)(F)F)c3ccccc3-c3ccccc32)CC1)[C@@H]1[C@H]2C[C@]1(c1ccc(C(F)(F)F)cc1)CO2 (relative stereo) [Compound 35] | 102 | 77 | 36 | 29 | 87 | 19.2 | 84 | 0.0006 | 2 (≈ 1.4 µg/mL) | 4 (≈ 2.8 µg/mL) |  | 1.46E+05 | 1.62E+05 | 8.88E+04 | > 4.5 | > 4.5 | > 4.5 | > 4.5 | > 4.5 | 3 (≈ 2.1 µg/mL) | CIint, intrinsic clearance (human liver microsomes; human liver microsomes): 87 µL/min/mg
O=C(NC1CCN(CCCCC2(C(=O)NCC(F)(F)F)c3ccccc3-c3ccccc32)CC1)c1ccccc1-c1ccc(C(F)(F)F)cc1 [Lomitapide, reference compound] | 97 | 89 | 49 | 46 | 55 | 30.4 | 88 | 0.000383 | 3 (≈ 2.08 µg/mL) | 3 (≈ 2.08 µg/mL) | 3 ± 0.1 (≈ 2.08 µg/mL) | 5.98E+08 | 3.42E+05 | 6.79E+04 | > 4.5 | > 4.5 | > 4.5 | > 4.5 | > 4.5 | 3 (≈ 2.08 µg/mL) | CIint, intrinsic clearance (human liver microsomes; human liver microsomes): 55 µL/min/mg

Second part, led by results:

remaining at […], 2 µM [1, 4] [%] | remaining at […], 2 µM [1, 5] [%] | remaining at 25 min, 2 µM [1, 6] [%] | remaining at 40 min, 2 µM [1, 6] [%] | microsomal CLint at 2 µM [1, 7] [µL/min/mg] | half-life at 2 µM [1, 8] [min] | remaining at 40 min, 2 µM [1, 10] [%] | k el at 2 µM [1, 11] [s⁻¹] | solubility at 2 h [2, 12] [µM] | solubility at 2 h [2, 13] [µM] | solubility at 2 h [2, 14] [µM] | D (partition ratio), incubation 1 (physchem) | D (partition ratio), incubation 2 (physchem) | D (partition ratio), incubation 3 (physchem) | logD at 1 h (physchem; pH 7.4, LogD, pH 7.4 (mean)) | logD at 1 h (physchem; [15]) | logD at 1 h (physchem; [16]) | logD at 1 h (physchem; [17]) | logD at 1 h (physchem; pH 7.4, logD (7.4)) | solubility at 2 h [2, 18] [µM] | SMILES | other results
97 | 101 | 101 | 96 | ~2 | ~960 | 124 | ~1.67e-05 | 169 (≈ 68.2 µg/mL) | 171 (≈ 69 µg/mL) | 170 (≈ 68.6 µg/mL) | 2.09E-01 | 8.99E-02 | 4.17E-02 | -1.04 | -0.68 | -1.05 | -1.38 | < 1 |  | O=C(O)c1ccccc1C(=O)Nc1ccc(S(=O)(=O)Nc2nccs2)cc1 [Phthalylsulfathiazole, reference compound] | microsomal CLint at 2 µM [1, 9]: 2 µL/min/mg; metabolic stability (in words) (human liver microsomes; human, microsomes): metabolically stable
 |  |  |  |  |  |  |  |  |  |  | 1.27E+03 | 1.32E+03 | 1.33E+03 | 3.12 | 3.1 | 3.12 | 3.12 |  |  | COC(=O)Nc1nc2ccc(C(=O)c3ccccc3)cc2[nH]1 [Mebendazole, reference compound] | 
97 | 97 | 99 | 100 |  |  | 89 |  | 151 (≈ 61.5 µg/mL) | 164 (≈ 66.8 µg/mL) | 101 (≈ 41.2 µg/mL) | 8.13E-02 | 3.23E-02 | 2.75E-02 | < 1 | < 1 | < 1 | < 1 | < 1 | 158 (≈ 64.4 µg/mL) | O=C(O)[C@@H]1[C@@H]2CC[C@@]1(C(=O)Nc1ccc(S(=O)(=O)Nc3nccs3)cc1)C2 (relative stereo) [Compound 32] | metabolic stability (in words) (human liver microsomes; human liver microsomes): metabolically stable
111 | 111 | 109 | 106 | ~1 | ~1190 | 92 |  | 100 (≈ 40.9 µg/mL) | 102 (≈ 41.8 µg/mL) | 158 (≈ 64.7 µg/mL) | 2.39E-01 | 1.93E-02 | 5.50E-01 | -0.87 | -0.62 | -1.72 | -0.26 | < 1 | 101 (≈ 41.4 µg/mL) | O=C(O)C1C2CC1(C(=O)Nc1ccc(S(=O)(=O)Nc3nccs3)cc1)CO2 (centres unmarked) [Compound 33] | microsomal CLint at 2 µM [1, 9]: 1 µL/min/mg; metabolic stability (in words) (human liver microsomes; human liver microsomes): metabolically stable
